Key:
Format in all cases: biochemical
[1] = target: T1, ArgD7002 (N-acetylornithine aminotransferase) (Picosynechococcus sp. PCC 7002, UniProt B1XNF8); experiment: HPLC of PITC derivatives, glutamate formation; settings: 1 mM GABA, 1 mM 2-oxoglutarate, 50 mM K-phosphate, pH 9, room temperature, 1 h
T1 construct: gene argD; full ORF, N-terminal His10 tag kept, E. coli DH5alpha, Ni-NTA purified
T1 sequence (B1XNF8 1-418): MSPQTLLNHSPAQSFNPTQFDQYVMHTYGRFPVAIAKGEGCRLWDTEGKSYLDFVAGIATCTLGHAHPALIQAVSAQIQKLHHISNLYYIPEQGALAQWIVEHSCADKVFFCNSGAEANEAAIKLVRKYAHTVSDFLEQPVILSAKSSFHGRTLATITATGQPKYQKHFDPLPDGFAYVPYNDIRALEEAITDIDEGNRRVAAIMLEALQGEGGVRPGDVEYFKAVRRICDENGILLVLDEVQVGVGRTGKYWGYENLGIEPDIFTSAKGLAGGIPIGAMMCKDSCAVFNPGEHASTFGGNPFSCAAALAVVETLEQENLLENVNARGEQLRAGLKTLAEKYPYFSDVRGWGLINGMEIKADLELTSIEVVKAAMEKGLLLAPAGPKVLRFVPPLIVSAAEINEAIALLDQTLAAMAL

[2] = target: T2, ArgD6803 (N-acetylornithine aminotransferase) (Synechocystis sp. PCC 6803, UniProt P73133); experiment: HPLC of PITC derivatives, glutamate formation; settings: 1 mM 2-oxoglutarate, 50 mM K-phosphate, pH 9, room temperature, 1 h
T2 construct: gene argD; full ORF, N-terminal His10 tag kept, E. coli DH5alpha, Ni-NTA purified

[3] = target: T3, GadA6803 (glutamate decarboxylase) (Synechocystis sp. PCC 6803, UniProt P73043); experiment: HPLC of PITC derivatives, GABA formation; settings: 1 mM glutamate, 50 mM K-phosphate, pH 4.5, room temperature, 1 h
T3 construct: gene gad; full ORF, N-terminal His10 tag kept, E. coli DH5alpha, Ni-NTA purified

NCCCC(=O)O [GABA]
HPLC of PITC derivatives, glutamate formation [1]: argD6803 or argD7002 was incubated with GABA and 2-oxoglutarate, glutamate was produced
HPLC of PITC derivatives, glutamate formation ([2]; 1 mM GABA): argD6803 or argD7002 was incubated with GABA and 2-oxoglutarate, glutamate was produced

NCCC[C@H](N)C(=O)O [L-ornithine]
HPLC of PITC derivatives, glutamate formation ([2]; 1 mM L-ornithine): argD6803 or argD7002 was incubated with L-ornithine and 2-OG, glutamate was produced

N[C@@H](CCC(=O)O)C(=O)O [glutamate]
HPLC of PITC derivatives, GABA formation [3]: this protein catalyzes the conversion of glutamate to GABA
